Our source for the IC50 values is patent US20140187548A1, “6 SUBSTITUTED IMIDAZOPYRAZINES FOR USE AS MPS-1 AND TKK INHIBITORS IN THE TREATMENT OF HYPERPROLIFERATIVE DISORDERS” (BAYER INTELLECTUAL PROPERTY GMBH, priority 2010, published 2014).

What is called IC50 is the concentration that gives 50% inhibition.

The target of the assay is T1, human kinase Mps-1 (Homo sapiens, UniProt P33981).
T1 construct: N-terminally GST-tagged human full length recombinant Mps-1 kinase; GST (N); purchased Invitrogen, Karslruhe, Germany PV4071
T1 sequence (P33981 1-857): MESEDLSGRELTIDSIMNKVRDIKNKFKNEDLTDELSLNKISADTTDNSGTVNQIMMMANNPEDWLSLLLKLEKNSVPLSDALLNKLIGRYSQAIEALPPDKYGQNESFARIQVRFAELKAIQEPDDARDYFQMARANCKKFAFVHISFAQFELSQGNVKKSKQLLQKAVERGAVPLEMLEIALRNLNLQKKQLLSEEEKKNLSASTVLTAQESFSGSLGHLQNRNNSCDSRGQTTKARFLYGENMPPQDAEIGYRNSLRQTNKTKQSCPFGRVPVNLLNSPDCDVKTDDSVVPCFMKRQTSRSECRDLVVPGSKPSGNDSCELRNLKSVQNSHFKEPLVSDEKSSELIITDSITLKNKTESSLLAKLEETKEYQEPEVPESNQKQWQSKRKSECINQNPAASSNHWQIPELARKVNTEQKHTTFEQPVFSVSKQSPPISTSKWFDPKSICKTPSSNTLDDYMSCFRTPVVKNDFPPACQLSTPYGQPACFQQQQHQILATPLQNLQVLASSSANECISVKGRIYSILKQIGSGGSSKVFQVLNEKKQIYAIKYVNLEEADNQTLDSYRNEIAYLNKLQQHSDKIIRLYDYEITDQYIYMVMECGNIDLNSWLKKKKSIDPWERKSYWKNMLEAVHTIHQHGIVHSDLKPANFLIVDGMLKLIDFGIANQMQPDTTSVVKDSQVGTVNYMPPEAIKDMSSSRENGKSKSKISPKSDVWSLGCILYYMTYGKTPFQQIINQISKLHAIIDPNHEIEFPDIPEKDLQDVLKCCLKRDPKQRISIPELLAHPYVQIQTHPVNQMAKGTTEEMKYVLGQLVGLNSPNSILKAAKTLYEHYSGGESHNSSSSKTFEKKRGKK
In words: Mps-1 kinase assay (TR-FRET). Type of assay: biochemical. Conditions: N-terminally GST-tagged human full length recombinant Mps-1; 10 μM ATP; 1 μM peptide substrate; 15 min pre-incubation; 60 min at 22° C. An outline of the steps: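 TR-FRET read-out: after 1 h binding at 22° C, Eu-labelled anti-phospho-Ser/Thr antibody transfers to SA-XLent on the phosphorylated biotinylated peptide. The enzyme is GST-tagged full-length human Mps-1, typically about 1 nM final, in the linear range.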
On the technique in general: TR-FRET usually uses a lanthanide donor and a delayed reading to cut background.
In the case of `O=C(NC1CC1)c1ccc(-c2cnc3c(NCCC(F)(F)F)nc(-c4ccccc4CO)cn23)cc1F` [Example 1-114, N-cyclopropyl-2-fluoro-4-{6-[2-(hydroxymethyl)phenyl]-8-[(3,3,3-tri-fluoropropyl)amino]imidazo[1,2-a]pyrazin-3-yl}benzamide], the IC50 was 3.5 nM.

For the compound `CC(C)(O)CNc1nc(-c2ccc(F)cc2)cn2c(-c3ccc(C(=O)NC4CC4)c(F)c3)cnc12` [Example 1-115, N-cyclopropyl-2-fluoro-4-{6-(4-fluorophenyl)-8-[(2-hydroxy-2-methyl-propyl)amino]imidazo [1,2-a]pyrazin-3-yl} benzamide], the half-maximal inhibitory concentration (IC50) was 5.4 nM.

`CC(C)(O)CNc1nc(-c2ccccc2CO)cn2c(-c3ccc(C(=O)NC4CC4)c(F)c3)cnc12` [Example 1-116, N-cyclopropyl-2-fluoro-4-{6-[2-(hydroxymethyl)phenyl]-8-[(2-hydroxy-2-methylpropyl)amino]imidazo[1,2-a]pyrazin-3-yl}benzamide]: the IC50 was 34.7 nM. As for `CN(C)c1ccc(-c2cn3c(-c4ccc(C(=O)NC5CC5)c(F)c4)cnc3c(NCC3CCCO3)n2)cc1` (stereo not shown) [Example 1-117, N-cyclopropyl-4-{6-[4-(dimethylamino)phenyl]-8-[(tetrahydrofuran-2-ylmethyl)amino]imidazo [1,2-a]pyrazin-3-yl}-2-fluorobenzamide], the IC50 was found to be 28.8 nM. As to `O=C(NC1CC1)c1ccc(-c2cnc3c(NCC4CCCO4)nc(-c4ccccc4CO)cn23)cc1F` (stereo not shown) [Example 1-118, N-cyclopropyl-2-fluoro-4-{6-[2-(hydroxymethyl)phenyl]-8-[(tetrahydro-furan-2-ylmethyl)amino]imidazo[1,2-a]pyrazin-3-yl}benzamide], the IC50 came out at 20.1 nM. The same measure for `Cn1nccc1CNc1nc(-c2ccc(F)cc2)cn2c(-c3ccc(C(=O)NC4CC4)c(F)c3)cnc12` [Example 1-119, N-cyclopropyl-2-fluoro-4-[6-(4-fluorophenyl)-8-{[(1-methyl-1H-pyrazol-5-yl)methyl]amino}imidazo[1,2-a]pyrazin-3-yl]benzamide]: 2.5 nM. With `CN(C)c1ccc(-c2cn3c(-c4ccc(C(=O)NC5CC5)c(F)c4)cnc3c(NCc3ccnn3C)n2)cc1` [Example 1-120, N-cyclopropyl-4-(6-[4-(dimethylamino)phenyl]-8-{[(1-methyl-1H-pyrazol-5-yl)methyl]amino}imidazo[1,2-a]pyrazin-3-yl)-2-fluorobenzamide] the figure was 16.8 nM. For the compound `Cn1nccc1CNc1nc(-c2ccccc2CO)cn2c(-c3ccc(C(=O)NC4CC4)c(F)c3)cnc12` [Example 1-121, N-cyclopropyl-2-fluoro-4-(6-[2-(hydroxymethyl)phenyl]-8-{[(1-methyl-1H-pyrazol-5-yl)methyl]amino}imidazo[1,2-a]pyrazin-3-yl)benzamide], the IC50 was 11.1 nM. As to `Cc1cc(-c2cnc3c(NCCC(F)(F)F)nc(-c4cccc(CO)c4)cn23)ccc1C(=O)NC1CC1` [Example 1-122, N-cyclopropyl-4-{6-[3-(hydroxymethyl)phenyl]-8-[(3,3,3-trifluoropropyl)amino]imidazo[1,2-a]pyrazin-3-yl}-2-methyl-benzamide], the IC50 is 11.9 nM. Take `Cc1cc(-c2cnc3c(NCCC(F)(F)F)nc(-c4ccc(CO)cc4)cn23)ccc1C(=O)NC1CC1` [Example 1-123, N-cyclopropyl-4-{6-[4-(hydroxymethyl)phenyl]-8-[(3,3,3-trifluoropropyl)amino]imidazo[1,2-a]pyrazin-3-yl}-2-methyl-benzamide]: the IC50 came to 1.2 nM. With `Cc1cc(-c2cnc3c(NCCC(F)(F)F)nc(-c4ccc(F)c(CO)c4)cn23)ccc1C(=O)NC1CC1` [Example 1-124, N-cyclopropyl-4-{6-[4-fluoro-3-(hydroxymethyl)phenyl]-8-[(3,3,3-tri-fluoropropyl)amino]imidazo[1,2-a]pyrazin-3-yl}-2-methylbenzamide] the figure was 1.1 nM; with `CC(C)(O)CNc1nc(-c2ccccc2)cn2c(-c3ccc(C(=O)NC4CC4)cc3)cnc12` [Example 1-125, N-cyclopropyl-4-{8-[(2-hydroxy-2-methylpropyl)amino]-6-phenylimidazo[1,2-a]pyrazin-3-yl}benzamide], 1.1 nM; with `CC(C)CNc1nc(-c2ccc(S(=O)(=O)NC3CC3)cc2)cn2c(-c3ccc(C(=O)NC4CC4)cc3)cnc12` [Example 1-126, N-cyclopropyl-4-{6-[4-(cyclopropylsulfamoyl)phenyl]-8-[(2-methylpropyl)amino]imidazo[1,2-a]pyrazin-3-yl}benzamide], 4.4 nM. `CC(C)CNc1nc(-c2ccc(SC3CC3)cc2)cn2c(-c3ccc(C(=O)NC4CC4)cc3)cnc12` [Example 1-127, N-cyclopropyl-4-{6-[4-(cyclopropylsulfanyl)phenyl]-8-[(2-methylpropyl)amino]imidazo[1,2-a]pyrazin-3-yl} benzamide]: the IC50 was determined as 32.2 nM. Consider `O=C(NC1CC1)c1ccc(-c2cnc3c(NCC4CCCCC4)nc(-c4cccc5ncccc45)cn23)cc1` [Example 1-128, 4-{8-[(cyclohexylmethyl)amino]-6-(quinolin-5-yl)imidazo[1,2-a]pyrazin-3-yl}-N-cyclopropylbenzamide], for which the IC50 was 1.2 nM. The same measure for `CC(C)CNc1nc(-c2cccc(S(N)(=O)=O)c2)cn2c(-c3ccc(C(=O)NC4CC4)cc3)cnc12` [Example 1-129, N-cyclopropyl-4-[8-(isobutylamino)-6-(3-sulfamoylphenyl)imidazo [1,2-a]pyrazin-3-yl] benzamide]: 1.9 nM; for `CC(C)CNc1nc(-c2cccc(S(=O)(=O)N3CCOCC3)c2)cn2c(-c3ccc(C(=O)NC4CC4)cc3)cnc12` [Example 1-130, N-cyclopropyl-4-{8-(isobutylamino)-6-[3-(morpholin-4-ylsulfonyl)phenyl]imidazo[1,2-a]pyrazin-3-yl}benzamide]: 6.7 nM. On to `CC(C)(O)CNc1nc(-c2ccc(F)cc2)cn2c(-c3ccc(C(=O)NC4CC4)cc3)cnc12` [Example 1-131, N-cyclopropyl-4-{6-(4-fluorophenyl)-8-[(2-hydroxy-2-methylpropyl)amino]imidazo[1,2-a]pyrazin-3-yl}benzamide], for which the IC50 came to 1.6 nM. With `CC(C)(O)CNc1nc(-c2ccccc2CO)cn2c(-c3ccc(C(=O)NC4CC4)cc3)cnc12` [Example 1-132, N-cyclopropyl-4-{6-[2-(hydroxymethyl)phenyl]-8-[(2-hydroxy-2-methylpropyl)amino]imidazo[1,2-a]pyrazin-3-yl}benzamide] the figure was 10.3 nM; with `CC(C)(O)CNc1nc(-c2cc(F)c(F)cc2F)cn2c(-c3ccc(C(=O)NC4CC4)cc3)cnc12` [Example 1-133, N-cyclopropyl-4-{8-[(2-hydroxy-2-methylpropyl)amino]-6-(2,4,5-trifluoro-phenyl)imidazo[1,2-a]pyrazin-3-yl}benzamide], 6.1 nM.

In the case of `CC(C)(O)CNc1nc(-c2cc(F)c(F)c(F)c2)cn2c(-c3ccc(C(=O)NC4CC4)cc3)cnc12` [Example 1-134, N-cyclopropyl-4-{8-[(2-hydroxy-2-methyl-propyl)amino]-6-(3,4,5-trifluorophenyl)imidazo[1,2-a]pyrazin-3-yl} benzamide], the IC50 is 31.5 nM. As for `Cc1cc(-c2cn3c(-c4ccc(C(=O)NC5CC5)cc4)cnc3c(NCC(C)(C)O)n2)ccc1F` [Example 1-135, N-cyclopropyl-4-{6-(4-fluoro-3-methylphenyl)-8-[(2-hydroxy-2-methylpropyl)amino]imidazo [1,2-a]pyrazin-3-yl} benzamide], the IC50 stood at 8.4 nM. The same measure for `Cc1cc(-c2cnc3c(NCC(C)(C)O)nc(-c4ccc(F)cc4)cn23)ccc1C(=O)NC1CC1` [Example 1-136, N-cyclopropyl-4-{6-(4-fluorophenyl)-8-[(2-hydroxy-2-methylpropyl)amino]imidazo[1,2-a]pyrazin-3-yl}-2-methylbenzamide]: 7.9 nM; for `Cc1cc(-c2cnc3c(NCC(C)(C)O)nc(-c4ccccc4)cn23)ccc1C(=O)NC1CC1` [Example 1-137, N-cyclopropyl-4-{8-[(2-hydroxy-2-methylpropyl)amino]-6-phenylimidazo[1,2-a]pyrazin-3-yl}-2-methylbenzamide]: 5.1 nM. For the compound `Cc1cc(-c2cnc3c(NCCC(F)(F)F)nc(-c4ccccc4CO)cn23)ccc1C(=O)NC1CC1` [Example 1-138, N-cyclopropyl-4-{6-[2-(hydroxymethyl)phenyl]-8-[(3,3,3-trifluoro-propyl)amino]imidazo[1,2-a]pyrazin-3-yl}-2-methylbenzamide], the IC50 is 1.9 nM.
